Results published in patent US20240270751A1, “Pyrazolopyridinone Compounds” (BeiGene Ltd., priority 2021, published 2024).

Key:
[1] = target: DGKζ (Homo sapiens (Human), UniProt Q13574); test: Biochemical DGK IC50 assay, DGKζ ADP-Glo assay; conditions: 0.5 nM enzyme, 140 μM ATP, 80 μM DAG; read-out: DGKζ ADP-Glo assay IC50
Procedure, shortened: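 ADP formation measured by ADP-Glo luminescence, with test compounds at final 1.55–10000 nM or 23.3–150000 nM. Enzyme: purified full-length human DGKζ from Sf9 insect cells; substrate: DAG/PS micelles in 25 mM HEPES pH 7.0, 0.5 mM EDTA, octyl glucoside.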

[2] = target: DGKα (Homo sapiens (Human), UniProt P23743); test: Biochemical DGK IC50 assay, DGKα ADP-Glo assay; conditions: 7.5 nM enzyme, 140 μM ATP, 80 μM DAG
Sequence of DGKα (P23743 whole entry): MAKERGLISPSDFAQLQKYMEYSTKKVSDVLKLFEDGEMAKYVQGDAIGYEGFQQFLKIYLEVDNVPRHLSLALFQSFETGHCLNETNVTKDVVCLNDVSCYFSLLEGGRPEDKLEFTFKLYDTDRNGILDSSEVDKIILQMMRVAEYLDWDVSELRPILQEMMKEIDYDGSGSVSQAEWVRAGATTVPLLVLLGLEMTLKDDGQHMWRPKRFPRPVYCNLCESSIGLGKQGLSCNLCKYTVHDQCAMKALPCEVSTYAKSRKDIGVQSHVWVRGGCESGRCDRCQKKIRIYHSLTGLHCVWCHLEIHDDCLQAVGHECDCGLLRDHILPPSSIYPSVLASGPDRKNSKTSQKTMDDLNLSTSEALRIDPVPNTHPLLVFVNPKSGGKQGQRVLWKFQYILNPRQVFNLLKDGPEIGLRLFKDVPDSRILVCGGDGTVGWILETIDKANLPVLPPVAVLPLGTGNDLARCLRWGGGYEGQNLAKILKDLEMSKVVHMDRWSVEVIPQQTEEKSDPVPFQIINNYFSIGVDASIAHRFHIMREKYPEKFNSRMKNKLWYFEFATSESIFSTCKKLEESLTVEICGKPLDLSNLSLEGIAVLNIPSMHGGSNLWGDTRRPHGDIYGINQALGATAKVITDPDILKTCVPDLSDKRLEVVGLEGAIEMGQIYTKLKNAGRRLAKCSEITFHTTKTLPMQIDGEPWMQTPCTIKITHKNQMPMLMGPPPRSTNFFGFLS
Procedure, shortened: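 Compounds at final 1.55˜10000 nM or 23.3˜150000 nM were tested against full-length DGKα. Substrate was lipid micelles of DAG and PS resuspended in 25 mM HEPES pH 7.0 with 0.5 mM EDTA and 160 mM octyl β-D-glucopyranoside. ADP formed was detected by ADP-Glo.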

Sequence of DGKζ (Q13574 other isoform, or with tags, fused parts or gaps): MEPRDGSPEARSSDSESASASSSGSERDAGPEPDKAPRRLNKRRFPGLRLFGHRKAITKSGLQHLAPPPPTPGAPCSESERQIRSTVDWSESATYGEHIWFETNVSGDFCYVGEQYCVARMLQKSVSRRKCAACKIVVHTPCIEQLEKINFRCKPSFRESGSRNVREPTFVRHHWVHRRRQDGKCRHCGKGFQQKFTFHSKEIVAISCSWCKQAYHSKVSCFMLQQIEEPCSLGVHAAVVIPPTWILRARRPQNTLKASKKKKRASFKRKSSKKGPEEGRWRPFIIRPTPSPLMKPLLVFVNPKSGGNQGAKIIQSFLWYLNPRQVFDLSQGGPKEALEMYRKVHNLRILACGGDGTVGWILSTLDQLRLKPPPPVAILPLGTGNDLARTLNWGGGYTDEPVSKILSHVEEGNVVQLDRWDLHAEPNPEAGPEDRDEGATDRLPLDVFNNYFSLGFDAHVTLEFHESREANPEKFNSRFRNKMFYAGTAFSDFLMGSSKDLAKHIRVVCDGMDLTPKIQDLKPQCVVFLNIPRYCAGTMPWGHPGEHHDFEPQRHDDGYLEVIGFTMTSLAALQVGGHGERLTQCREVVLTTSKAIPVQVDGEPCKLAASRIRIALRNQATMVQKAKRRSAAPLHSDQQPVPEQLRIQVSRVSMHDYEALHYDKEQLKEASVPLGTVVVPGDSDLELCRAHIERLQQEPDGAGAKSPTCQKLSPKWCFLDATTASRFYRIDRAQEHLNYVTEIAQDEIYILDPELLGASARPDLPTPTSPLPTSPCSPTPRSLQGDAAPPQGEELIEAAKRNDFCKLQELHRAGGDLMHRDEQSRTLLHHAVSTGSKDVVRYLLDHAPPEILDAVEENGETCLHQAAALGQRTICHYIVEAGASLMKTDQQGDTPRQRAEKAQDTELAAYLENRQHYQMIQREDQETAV

SMILES	IC50 [1] [nM]	IC50 [2] [nM]
CC(OC(F)F)c1cc(F)ccc1C(C)N1C[C@H](C)N(c2cc(=O)n(C)c3cn(CC#N)nc23)C[C@H]1C (stereo partly drawn) [Compound A328, 2-(7-((2S,5R)-4-(1-(2-(1-(difluoromethoxy)ethyl)-4-fluorophenyl)ethyl)-2,5-dimethylpiperazin-1-yl)-4-methyl-5-oxo-4,5-dihydro-2H-pyrazolo[4,3-b]pyridin-2-yl)acetonitrile]	143	83000
C[C@@H]1CN(c2cc(=O)n(C)c3cn(CC#N)nc23)[C@@H](C)CN1Cc1ccc2nccnc2c1 [Compound A44]	610	8100
CC(c1ccc(F)cc1CC#N)N1C[C@H](C)N(c2cc(=O)n(C)c3cn(CC#N)nc23)C[C@H]1C (single isomer, unassigned) [Compound A287b]	567	> 10000
CC[C@H]1CN(C(C)c2ccc(F)cc2C(=O)OC)[C@H](CC)CN1c1cc(=O)n(C)c2cn(CC#N)nc12 (stereo partly shown) [Compound A290]	425	56400
CC(c1ccc(F)cn1)N1C[C@H](C)N(c2cc(=O)n(C)c3cn(CC#N)nc23)C[C@H]1C (stereo partly shown) [Compound A33]	> 10000	160
CC[C@H]1CN(C(C)c2ccc(OC3CCOCC3)cc2)[C@H](CC)CN1c1cc(=O)n(C)c2cn(CC#N)nc12 (stereo partly shown) [Compound A380]	667	161
CCO[C@@H]1CN(c2cc(=O)n(C)c3cn(CC#N)nc23)CC[C@H]1Oc1cccc(C(F)(F)F)c1 [Compound A295, 2-(7-((3R,4R)-3-ethoxy-4-(3-(trifluoromethyl)phenoxy)piperidin-1-yl)-4-methyl-5-oxo-4,5-dihydro-2H-pyrazolo[4,3-b]pyridin-2-yl)acetonitrile]	563	5690
CCC(c1ccc2nccnc2c1)N1C[C@H](C)N(c2cc(=O)n(C)c3cn(CC#N)nc23)C[C@H]1C (stereo partly shown) [Compound A255]	194	> 10000
CC(c1ccc2c(c1)OC1(CC1)CO2)N1C[C@H](C)N(c2cc(=O)n(C)c3cn(CC#N)nc23)C[C@H]1C (stereo partly drawn) [Compound A323, 2-(7-((2S,5R)-4-(1-(3H-spiro[benzo[b][1,4]dioxine-2,1′-cyclopropan]-7-yl)ethyl)-2,5-dimethylpiperazin-1-yl)-4-methyl-5-oxo-4,5-dihydro-2H-pyrazolo[4,3-b]pyridin-2-yl)acetonitrile]	7	10700
CC[C@H]1CN([C@H](C)c2nc3ncccc3n2CC)[C@H](CC)CN1c1cc(=O)n(C)c2cn(CC#N)nc12 (single isomer, unassigned) [Compound A215a]	> 10000	> 10000
CC[C@H]1CN(C(C)c2ccc(OC(F)(F)F)cn2)[C@H](CC)CN1c1cc(=O)n(C)c2cn(CC#N)nc12 (stereo partly shown) [Compound A361]	554	5.1
CC[C@H]1CN(C(C)c2nc3ccc(C(F)(F)F)cc3n2CC)[C@H](CC)CN1c1cc(=O)n(C)c2cn(CC#N)nc12 (single isomer, unassigned) [Compound A204b]	298	> 10000
CC[C@H]1CN(C(C)c2ccc(C(N)=O)cc2)[C@H](CC)CN1c1cc(=O)n(C)c2cn(CC#N)nc12 (single isomer, unassigned) [Compound A120b]	> 10000	2260
CC[C@H]1CN(C(C)c2ccc3cccnc3n2)[C@H](CC)CN1c1cc(=O)n(C)c2cn(CC#N)nc12 (stereo partly drawn) [Compound A63, 2-(7-((2S,5R)-4-(1-(1,8-naphthyridin-2-yl)ethyl)-2,5-diethylpiperazin-1-yl)-4-methyl-5-oxo-4,5-dihydro-2H-pyrazolo[4,3-b]pyridin-2-yl)acetonitrile]	43	83
CC[C@H]1CN(C(C)c2ccc(OCC3CCOC3)cc2)[C@H](CC)CN1c1cc(=O)n(C)c2cn(CC#N)nc12 (stereo partly shown) [Compound A376]	602	206
CC#CCn1cc2c(n1)c(N1C[C@@H](CC)N(C(C)c3ccc4nccnc4c3)C[C@@H]1CC)cc(=O)n2C (stereo partly drawn) [Compound A23, 2-(but-2-yn-1-yl)-7-((2S,5R)-2,5-diethyl-4-(1-(quinoxalin-6-yl)ethyl)piperazin-1-yl)-4-methyl-2,4-dihydro-5H-pyrazolo[4,3-b]pyridin-5-one]	57	120
C[C@H](c1ccc2nccnc2c1)N1CCN(c2cc(=O)n(C)c3cn(CC#N)nc23)CC1C(N)=O (single isomer, unassigned) [Compound A198b]	> 10000	> 10000
COc1c(C(C)N2C[C@H](C)N(c3cc(=O)n(C)c4cn(CC#N)nc34)C[C@H]2C)ccc(F)c1F (stereo partly shown) [Compound A273]	5550	> 10000
CC[C@@H]1CN(c2c(C#N)c(=O)n(C)c3cn(CC#N)nc23)[C@@H](C)CN1C(C)c1ccc2nccnc2c1 (stereo partly drawn) [Compound A156, 2-(cyanomethyl)-7-((2S,5R)-5-ethyl-2-methyl-4-(1-(quinoxalin-6-yl)ethyl)piperazin-1-yl)-4-methyl-5-oxo-4,5-dihydro-2H-pyrazolo[4,3-b]pyridine-6-carbonitrile]	18	1750

SMILES	IC50 [1] [nM]	IC50 [2] [nM]
CC[C@@H]1CN(c2cc(=O)n(C)c3cn(CC#N)nc23)CCN1C(C)c1ccc2nccnc2c1 (single isomer, unassigned) [Compound A161a]	> 10000	> 10000
CC[C@H]1CN(C(C)c2ccc(C(F)(F)F)cc2)[C@H](CC)CN1c1cc(=O)n(C)c2cn(CC#N)nc12 (single isomer, unassigned) [Compound A103a]	241	403
CC(c1ccc(F)cc1CC#N)N1C[C@H](C)N(c2cc(=O)n(C)c3cn(CC#N)nc23)C[C@H]1C (single isomer, unassigned) [Compound A287a]	9680	> 10000
CC(c1ccc2nccnc2c1)N1C[C@H](CC#N)N(c2cc(=O)n(C)c3cn(CC#N)nc23)C[C@H]1C (stereo partly drawn) [Compound A158, 2-((2S,5R)-1-(2-(cyanomethyl)-4-methyl-5-oxo-4,5-dihydro-2H-pyrazolo[4,3-b]pyridin-7-yl)-5-methyl-4-(1-(quinoxalin-6-yl)ethyl)piperazin-2-yl)acetonitrile]	381	> 10000
[2H]C([2H])([2H])n1c(=O)cc(N2C[C@@H](C)N(C(C)c3ccc(F)cc3C(F)(F)F)C[C@@H]2C)c2nn(CC#N)cc21 (stereo partly drawn) [Compound A257, 2-(7-((2S,5R)-4-(1-(4-fluoro-2-(trifluoromethyl)phenyl)ethyl)-2,5-dimethylpiperazin-1-yl)-4-(methyl-d3)-5-oxo-4,5-dihydro-2H-pyrazolo[4,3-b]pyridin-2-yl)acetonitrile]	652	> 10000
CC[C@H]1CN([C@H](C)c2ccc3nccnc3c2)[C@H](CC)CN1c1cc(=O)n(CC(F)(F)F)c2cn(CC#N)nc12 [Compound A124]	> 10000	> 10000
CC[C@@H]1CN(c2cc(=O)n(C)c3cn(CC(F)F)nc23)[C@@H](C)CN1C(C)c1ccc2nccnc2c1 (single isomer, unassigned) [Compound A222a]	452	5250
CC[C@H]1CN(C(C)c2ccc3ncccc3c2)[C@H](CC)CN1c1cc(=O)n(C)c2cn(CC#N)nc12 (stereo partly shown) [Compound A60]	17	125
CC(c1ccc(F)cc1P(C)(C)=O)N1C[C@H](C)N(c2cc(=O)n(C)c3cn(CC#N)nc23)C[C@H]1C (stereo partly shown) [Compound A285]	> 10000	> 10000
CC(c1ccc2nccnc2c1)N1C[C@H](C)N(c2cc(=O)n(C)c3cn(CC(N)=O)nc23)C[C@H]1C (stereo partly shown) [Compound A6]	> 150000	> 150000
CC[C@H]1CN(C(C)c2cc(C)c(C)cn2)[C@H](CC)CN1c1cc(=O)n(C)c2cn(CC#N)nc12 (stereo partly shown) [Compound A385]	498	481
CCS(=O)(=O)N1CC(CC#N)(n2cc3c(n2)c(N2C[C@@H](C)N(C(C)c4ccc5nccnc5c4)C[C@@H]2C)cc(=O)n3C)C1 (stereo partly drawn) [Compound A19, 2-(3-(7-((2S,5R)-2,5-dimethyl-4-(1-(quinoxalin-6-yl)ethyl)piperazin-1-yl)-4-methyl-5-oxo-4,5-dihydro-2H-pyrazolo[4,3-b]pyridin-2-yl)-1-(ethylsulfonyl)azetidin-3-yl)acetonitrile]	24000	> 150000
CC(c1cc2ccccc2cn1)N1C[C@H](C)N(c2cc(=O)n(C)c3cn(CC#N)nc23)C[C@H]1C (stereo partly shown) [Compound A305]	1190	1490
CC[C@H]1CN(C(C)c2cccc(NC(C)=O)c2)[C@H](CC)CN1c1cc(=O)n(C)c2cn(CC#N)nc12 (stereo partly shown) [Compound A109]	7850	6170
CC[C@H]1CN(C(C)c2ccc(F)nc2)[C@H](CC)CN1c1cc(=O)n(C)c2cn(CC#N)nc12 (single isomer, unassigned) [Compound A353b]	2490	797
CC[C@@H]1CN(c2cc(=O)n(C)c3cn(CC(F)F)nc23)[C@@H](C)CN1C(C)c1ccc2nccnc2c1 (single isomer, unassigned) [Compound A222b]	> 10000	7420
CC[C@H]1CN(C(C)c2ccc(C)cc2)[C@H](CC)CN1c1cc(=O)n(C)c2cn(CC#N)nc12 (stereo partly drawn) [Compound A127, 2-(7-((2S,5R)-2,5-diethyl-4-(1-(p-tolyl)ethyl)piperazin-1-yl)-4-methyl-5-oxo-4,5-dihydro-2H-pyrazolo[4,3-b]pyridin-2-yl)acetonitrile]	260	56
CC[C@H]1CN(C(C)c2c(F)cccc2F)[C@H](CC)CN1c1cc(=O)n(C)c2cn(CC#N)nc12 (stereo partly shown) [Compound A83]	170	81
C[C@@H]1CN(c2cc(=O)n(C)c3cn(CC#N)nc23)[C@@H](C)CN1Cc1ccc(F)cc1C(F)(F)F [Compound A246]	1070	9720
